Experimental data: ChEMBL document CHEMBL1201862, “PubChem BioAssay data set” (2004)
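Briefly, cells in 96-well plates were exposed to five compound concentrations for 48 h, and endpoints were estimated by linear interpolation. GI50: concentration for 50% inhibition of growth.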 Active and inactive are the calls of the source. No stated cut-off is given here; in the data, active = GI50 up to about 1.1 µM and inactive = higher.

Columns and labels:
Assay in all cases: inhibition of tumour cell growth, NCI panel, 48 h
MOLT-4 = system: MOLT-4
NCI-H226 = system: NCI-H226
SF-268 = system: SF-268
UACC-62 = system: UACC-62
HT-29 = system: HT-29
A498 = system: A498
TK-10 = system: TK-10
NCI-H460 = system: NCI-H460
SK-MEL-28 = system: SK-MEL-28
OVCAR-4 = system: OVCAR-4
ACHN = system: ACHN
NCI-H522 = system: NCI-H522
CAKI-1 = system: CAKI-1
SR = system: SR
SN12C = system: SN12C
SF-295 = system: SF-295
SK-MEL-2 = system: SK-MEL-2
MDA-MB-435 = system: MDA-MB-435
HL-60 = system: HL-60

| SMILES | GI50 (MOLT-4) | GI50 (NCI-H226) | GI50 (SF-268) | GI50 (UACC-62) | GI50 (HT-29) | GI50 (A498) | GI50 (TK-10) | GI50 (NCI-H460) | GI50 (SK-MEL-28) | GI50 (OVCAR-4) | GI50 (ACHN) | GI50 (NCI-H522) | GI50 (CAKI-1) | GI50 (SR) | GI50 (SN12C) | GI50 (SF-295) | GI50 (SK-MEL-2) | GI50 (MDA-MB-435) | GI50 (HL-60) |
| --- | --- | --- | --- | --- | --- | --- | --- | --- | --- | --- | --- | --- | --- | --- | --- | --- | --- | --- | --- |
| Brc1ccc(-c2cn3ccncc3n2)cc1 | 60.3 µM (inactive) | > 100 µM (inactive) | > 100 µM (inactive) | > 100 µM (inactive) | > 100 µM (inactive) | > 100 µM (inactive) | > 100 µM (inactive) | > 100 µM (inactive) | > 100 µM (inactive) | > 100 µM (inactive) | > 100 µM (inactive) | > 100 µM (inactive) | > 100 µM (inactive) | > 100 µM (inactive) | > 100 µM (inactive) | > 100 µM (inactive) | > 100 µM (inactive) | > 100 µM (inactive) | – |
| O=C(Cn1c(C(=O)/C=C/c2cccs2)nc2ccccc21)c1ccc(Cl)cc1 | – | 53.8 µM (inactive) | 12.6 µM (inactive) | 25.2 µM (inactive) | 19.7 µM (inactive) | 19.9 µM (inactive) | 27 µM (inactive) | 10.5 µM (inactive) | 30.5 µM (inactive) | 14.6 µM (inactive) | 26.6 µM (inactive) | – | – | 3.09 µM (inactive) | 16.7 µM (inactive) | – | 6 µM (inactive) | 12.7 µM (inactive) | 18.3 µM (inactive) |
| CCN1C[C@]2(C)CC[C@H](OCc3ccccc3)C34C5C[C@@H]6CC[C@](O)(C(C[C@@H]32)C14)C5[C@H]6OCc1ccccc1 (stereo partly drawn) | 16.7 µM (inactive) | > 100 µM (inactive) | > 100 µM (inactive) | > 100 µM (inactive) | 55.2 µM (inactive) | > 100 µM (inactive) | 45.8 µM (inactive) | 31.2 µM (inactive) | > 100 µM (inactive) | 85.1 µM (inactive) | 32.4 µM (inactive) | – | – | 54.8 µM (inactive) | > 100 µM (inactive) | > 100 µM (inactive) | 83.9 µM (inactive) | 90.8 µM (inactive) | – |
| COC(=O)c1cc2c3c(ccc2[nH]1)N(C(=O)c1cc2cc(OC)c(OC)c(OC)c2[nH]1)CC3CCl (stereo not drawn) | 1.57 µM (inactive) | 14.3 µM (inactive) | > 100 µM (inactive) | 4.54 µM (inactive) | 8.55 µM (inactive) | 42.5 µM (inactive) | > 54.2 µM (inactive) | 2.79 µM (inactive) | > 24.1 µM (inactive) | 8.34 µM (inactive) | 5.62 µM (inactive) | 2.9 µM (inactive) | – | 1.1 µM (active) | – | 7.78 µM (inactive) | > 100 µM (inactive) | 13.7 µM (inactive) | 1.48 µM (inactive) |
| O=C(C=P(c1ccccc1)(c1ccccc1)c1ccccc1)c1ccc(-c2cccc([N+](=O)[O-])c2)cc1 | 2.96 µM (inactive) | 5.01 µM (inactive) | 4.65 µM (inactive) | 4.2 µM (inactive) | 1.75 µM (inactive) | 3.02 µM (inactive) | 3.23 µM (inactive) | 1.91 µM (inactive) | 4.98 µM (inactive) | 2.61 µM (inactive) | 2.82 µM (inactive) | – | 2.74 µM (inactive) | 3.69 µM (inactive) | 3.13 µM (inactive) | 3.6 µM (inactive) | 1.63 µM (inactive) | 2.39 µM (inactive) | 2.57 µM (inactive) |
| N=C(N)NS(=O)(=O)c1ccc(NC(=O)c2ccc3nc4ccccc4c(N)c3c2)cc1 | > 100 µM (inactive) | > 100 µM (inactive) | > 100 µM (inactive) | > 100 µM (inactive) | > 100 µM (inactive) | – | > 100 µM (inactive) | > 100 µM (inactive) | > 100 µM (inactive) | > 100 µM (inactive) | > 100 µM (inactive) | > 100 µM (inactive) | > 100 µM (inactive) | > 100 µM (inactive) | > 100 µM (inactive) | > 100 µM (inactive) | > 100 µM (inactive) | > 100 µM (inactive) | > 100 µM (inactive) |
| N=c1oc2ccc(Cl)cc2cc1C(N)=O | > 100 µM (inactive) | 28.2 µM (inactive) | 26.3 µM (inactive) | 16.8 µM (inactive) | 38.5 µM (inactive) | 32.7 µM (inactive) | – | 30.8 µM (inactive) | 29 µM (inactive) | 37.1 µM (inactive) | 24.4 µM (inactive) | – | 34.1 µM (inactive) | 65.3 µM (inactive) | 18.8 µM (inactive) | – | 13.3 µM (inactive) | 31.7 µM (inactive) | 54.2 µM (inactive) |
| O=c1[nH]nc(Cc2ccccc2)n1/N=C/c1ccccc1Cl | > 100 µM (inactive) | > 100 µM (inactive) | > 100 µM (inactive) | > 100 µM (inactive) | > 100 µM (inactive) | > 100 µM (inactive) | > 100 µM (inactive) | > 100 µM (inactive) | – | > 100 µM (inactive) | > 100 µM (inactive) | > 100 µM (inactive) | > 100 µM (inactive) | > 100 µM (inactive) | > 100 µM (inactive) | 52.2 µM (inactive) | > 100 µM (inactive) | > 100 µM (inactive) | – |
| C=CCC1C(=O)Nc2cccc3ncn(c23)C1=O (stereo not drawn) | > 100 µM (inactive) | > 100 µM (inactive) | > 100 µM (inactive) | > 100 µM (inactive) | > 100 µM (inactive) | > 100 µM (inactive) | – | > 100 µM (inactive) | > 100 µM (inactive) | > 100 µM (inactive) | > 100 µM (inactive) | – | > 100 µM (inactive) | > 100 µM (inactive) | > 100 µM (inactive) | > 100 µM (inactive) | > 100 µM (inactive) | > 100 µM (inactive) | > 100 µM (inactive) |
| CC(=O)NC1C(OCc2ccccc2)OC(CO)C(O)C1OCC(=O)N[C@@H](C)C(=O)N[C@H](CCC(=O)NCCCCNc1c2ccccc2nc2cccc([N+](=O)[O-])c12)C(N)=O (stereo partly drawn) | 1.6 µM (inactive) | 1.84 µM (inactive) | 2.58 µM (inactive) | 1.51 µM (inactive) | 1.18 µM (inactive) | 2.16 µM (inactive) | 1.47 µM (inactive) | 0.48 µM (active) | 4.5 µM (inactive) | 0.957 µM (active) | 1.33 µM (inactive) | 0.134 µM (active) | 1.49 µM (inactive) | 1.07 µM (active) | 2.25 µM (inactive) | 3.88 µM (inactive) | 2.51 µM (inactive) | 1.62 µM (inactive) | – |
| COC(=O)C#CC1(O)C=CC(=O)C=C1 | 0.0933 µM (active) | 5.07 µM (inactive) | 0.664 µM (active) | 0.865 µM (active) | 0.253 µM (active) | 34 µM (inactive) | 1.18 µM (inactive) | 2.71 µM (inactive) | 0.579 µM (active) | 3.13 µM (inactive) | 0.571 µM (active) | 0.175 µM (active) | 0.209 µM (active) | 0.0519 µM (active) | 0.789 µM (active) | 8.69 µM (inactive) | 2.36 µM (inactive) | 0.436 µM (active) | – |
| C=C1CN(C2=NCCO2)C1 | > 100 µM (inactive) | > 100 µM (inactive) | > 100 µM (inactive) | > 100 µM (inactive) | > 100 µM (inactive) | – | > 100 µM (inactive) | > 100 µM (inactive) | > 100 µM (inactive) | > 100 µM (inactive) | > 100 µM (inactive) | – | > 100 µM (inactive) | > 100 µM (inactive) | > 100 µM (inactive) | > 100 µM (inactive) | > 100 µM (inactive) | > 100 µM (inactive) | > 100 µM (inactive) |
| O=C(NCCC(F)(F)C(F)(F)C(F)(F)C(F)(F)F)NC1OC(CO)C(O)C(O)C1O (stereo not drawn) | > 100 µM (inactive) | – | > 100 µM (inactive) | > 100 µM (inactive) | > 100 µM (inactive) | – | > 100 µM (inactive) | > 100 µM (inactive) | > 100 µM (inactive) | > 100 µM (inactive) | > 100 µM (inactive) | – | > 100 µM (inactive) | > 100 µM (inactive) | > 100 µM (inactive) | > 100 µM (inactive) | > 100 µM (inactive) | > 100 µM (inactive) | > 100 µM (inactive) |
| CNc1nc2n(CCO)c(-c3ccccc3)c(-c3ccccc3)nc-2c(=O)n1 | > 50 µM (inactive) | > 50 µM (inactive) | > 50 µM (inactive) | > 50 µM (inactive) | > 50 µM (inactive) | > 50 µM (inactive) | > 50 µM (inactive) | > 50 µM (inactive) | > 50 µM (inactive) | > 50 µM (inactive) | > 50 µM (inactive) | > 50 µM (inactive) | > 50 µM (inactive) | > 50 µM (inactive) | > 50 µM (inactive) | > 50 µM (inactive) | > 50 µM (inactive) | > 50 µM (inactive) | – |
| O=[N+]([O-])c1ccc(NN=C2c3ccccc3Cc3ccccc32)c([N+](=O)[O-])c1 | 6.87 µM (inactive) | 29.6 µM (inactive) | 14.3 µM (inactive) | 5.38 µM (inactive) | 2.88 µM (inactive) | > 92 µM (inactive) | > 100 µM (inactive) | 3.91 µM (inactive) | > 81.1 µM (inactive) | 13.3 µM (inactive) | 17.7 µM (inactive) | 2.13 µM (inactive) | 9.51 µM (inactive) | 2.07 µM (inactive) | > 67.5 µM (inactive) | 3.71 µM (inactive) | 3.44 µM (inactive) | 1.79 µM (inactive) | – |
| c1ccc2c(c1)c1c(n2CCOCCN2CCCCC2)CCCC1 | 10.5 µM (inactive) | 21.7 µM (inactive) | 16.9 µM (inactive) | 15 µM (inactive) | 11.6 µM (inactive) | – | 14.3 µM (inactive) | 11.9 µM (inactive) | 24.6 µM (inactive) | 11.1 µM (inactive) | 14.2 µM (inactive) | – | – | 13.8 µM (inactive) | 13.7 µM (inactive) | 16.2 µM (inactive) | 8.77 µM (inactive) | 12.8 µM (inactive) | 2.37 µM (inactive) |
